Laboratory results: patent publication US20210130473A1, “TGFßR1 INHIBITOR-ASGR ANTIBODY CONJUGATES AND USES THEREOF” (Silverback Therapeutics, Inc., priority 2019, published 2021)

Target: T1, ALK5 (Homo sapiens, UniProt P36897)
T1 construct: purchased Reaction Biology Corp (Malvern, Pa.)
T1 sequence (P36897 34-503): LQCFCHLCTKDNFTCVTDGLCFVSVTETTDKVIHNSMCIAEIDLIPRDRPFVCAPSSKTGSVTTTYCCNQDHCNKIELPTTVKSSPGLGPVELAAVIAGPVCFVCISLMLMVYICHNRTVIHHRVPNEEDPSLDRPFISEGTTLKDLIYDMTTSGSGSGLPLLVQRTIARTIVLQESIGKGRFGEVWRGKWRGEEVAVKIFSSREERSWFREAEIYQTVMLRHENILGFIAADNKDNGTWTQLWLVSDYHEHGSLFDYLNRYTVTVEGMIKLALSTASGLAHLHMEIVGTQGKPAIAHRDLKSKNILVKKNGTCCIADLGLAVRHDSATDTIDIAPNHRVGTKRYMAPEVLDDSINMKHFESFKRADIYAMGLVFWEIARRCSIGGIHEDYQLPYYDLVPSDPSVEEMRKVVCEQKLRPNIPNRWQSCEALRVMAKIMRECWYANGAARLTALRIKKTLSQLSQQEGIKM
Assay: ALK5 enzyme inhibition assay (casein substrate, 10 uM ATP, 33P-ATP, filter-binding; Reaction Biology Corp)
Format: biochemical
Settings: Table 11
Procedure: ALK5 enzyme inhibition assays were performed by Reaction Biology Corp (Malvern, Pa.). 1 mg/mL of peptide substrate (casein) and 10 uM ATP were prepared in a mixture of fresh reaction buffer. The kinase was delivered into the substrate solution which was gently mixed. Compounds in 100% DMSO were added to the kinase reaction mixture by Acoustic technology (Echo550; nanoliter range) and the mixture was incubated for 20 min at room temperature. ^33P-ATP (Specific activity 10 uCi/uL) was added into the reaction mixture to initiate the reaction and the reaction mixture was incubated for 2 hours at room temperature. Radioactivity was detected by filter-binding method and kinase activity data were expressed as the percent remaining kinase activity in test samples compared to vehicle (dimethyl sulfoxide) reactions. IC50 values and curve fits were obtained using Prism (GraphPad Software).

| Compound | IC50 |
| --- | --- |
| Cc1cccc(-c2nc(CNCc3ccccc3-c3cc(F)cc(F)c3)[nH]c2-c2ccc3ncnn3c2)n1 [Compound 39] | 0.1 to 50 nM |
| Cc1cccc(-c2nc(CNCc3ccccc3-c3cccc(CN)c3)[nH]c2-c2ccc3ncnn3c2)n1 [Compound 33] | 100 to 1000 nM |
| Cc1cccc(-c2nc(CNCc3ccccc3-c3ccccc3F)[nH]c2-c2ccc3ncnn3c2)n1 [Compound 38] | 0.1 to 50 nM |
| Cc1cccc(-c2nc(CNCc3ccccc3-c3ccc(F)c(F)c3)[nH]c2-c2ccc3ncnn3c2)n1 [Compound 36] | 50 to 100 nM |
| Cc1cccc(-c2nc(CNCCc3c(F)cccc3F)[nH]c2-c2ccc3ncccc3c2)n1 [Compound 89] | 0.1 to 50 nM |

Continued, values first:

| IC50 | Compound |
| --- | --- |
| 1000 to 10000 nM | Cc1cccc(-c2nc(CNCc3ccc(Cl)cc3)[nH]c2-c2ccc3ncnn3c2)n1 [Compound 3] |
| 50 to 100 nM | Cc1cccc(-c2nc(CNCc3cccc(C)c3C)[nH]c2-c2ccc3ncnn3c2)n1 [Compound 45] |
| 50 to 100 nM | Cc1cccc(-c2nc(CNCCc3ccccc3)[nH]c2-c2ccc3ncnn3c2)n1 [Compound 52] |
| 50 to 100 nM | Cc1cccc(-c2nc(CNCc3ccccc3C(C)C)[nH]c2-c2ccc3ncnn3c2)n1 [Compound 23] |

Same assay, conditions: Table 12

| IC50 | Compound |
| --- | --- |
| 100 to 1000 nM | Cc1cccc(-c2nc(CNc3ccc4c(c3)CC(N)C4)[nH]c2-c2ccc3ncnn3c2)n1 (centres unmarked) [Compound 1.24] |

System: TGFβ/SMAD Signaling Pathway SBE reporter cell line
Assay: TGFb reporter assay in HEK293 SBE-LUC reporter cells (luciferase)
Format: cell-based
Settings: Homo sapiens, key of the table says IC50, read-out: EC50 (the source's name)
Procedure: TGFβ/SMAD Signaling Pathway SBE reporter cell line was obtained from BPS Bioscience. Cells are passed, expanded, and stored in liquid nitrogen as per the supplier's instructions with the exception that growth media is changed to DMEM-C with Geneticin (DMEM supplemented with 10% fetal bovine serum, 1×NEAA, 1 mM Pyruvate, 2 mM glutamine, 50 μg/mL penicillin, 50 U/mL streptomycin and 400 μg/mL of Geneticin). The assay media is MEM supplemented with 0.5% fetal bovine serum, 1×NEAA, 1 mM Pyruvate, 50 μg/mL penicillin and 50 U/mL streptomycin.
Compounds are assayed to measure their activity as ALK5 inhibitors.
The HEK293 SBE-LUC reporter cells from Example 15 were grown in DMEM-C with Geneticin (DMEM supplemented with […], 1×NEAA, 1 mM Pyruvate, 2 mM glutamine, 50 μg/mL penicillin, 50 U/mL streptomycin and 400 ug/mL of Geneticin). The assay media was MEM supplemented with 0.5% fetal bovine serum, 1×NEAA, 1 mM Pyruvate, 50 μg/mL penicillin and 50 U/mL streptomycin.
The HEK293 SBE-LUC reporter cells were harvested from the tissue culture flasks by incubation in small quantity of Versene at room temperature for three to five minutes after the media in the flask is removed and cells rinsed with PBS. Cells were counted and diluted in the assay media at ˜0.8×10^6 cells/mL then 50 uL/well were added to 96-well assay plate. Test samples (at desired concentrations diluted in assay media) were added to assay plate containing the 50 uL/well of cells (or media only), 50 uL per well, and incubated for 5-6 hours at 37° C. in a 5% CO2 humidified incubator. After that time, 15 uL of TGFb diluted to 12.5 ng/mL in the assay media was added to the plate. Controls included TGFb titration (from 25 to 0 ng/mL) without inhibitors, and media only (without cells, inhibitor or TGFb). Plates were incubated at 37° C. in a 5% CO2 humidified incubator for 18h. Luciferase substrate solution was subsequently added at 75 uL per well, incubated in dark with shaking at room temperature for 10 min, and luminescence was measured using a luminometer.

| Compound | IC50 |
| --- | --- |
| Cc1cccc(-c2nc(CNCc3ccccc3-c3cc(F)cc(F)c3)[nH]c2-c2ccc3ncnn3c2)n1 [Compound 39] | 10 to 100 nM |
| Cc1cccc(-c2nc(CNCc3ccccc3-c3cccc(CN)c3)[nH]c2-c2ccc3ncnn3c2)n1 [Compound 33] | 100 to 1000 nM |
| Cc1cccc(-c2nc(CNCCc3cccc4ncccc34)[nH]c2-c2ccc3ncnn3c2)n1 [Compound 1.61] | 10 to 100 nM |
| Cc1cccc(-c2nc(CNCc3ccccc3-c3ccccc3F)[nH]c2-c2ccc3ncnn3c2)n1 [Compound 38] | 0.1 to 10 nM |
| Cc1cccc(-c2nc(CNCc3ccccc3-c3ccc(F)c(F)c3)[nH]c2-c2ccc3ncnn3c2)n1 [Compound 36] | 10 to 100 nM |
| Cc1cccc(-c2nc(CNCc3ccccc3)[nH]c2-c2ccc3nccnc3c2)n1 [Compound 77] | 0.1 to 10 nM |
| Cc1cccc(-c2nc(CNCCc3ccnc4ccccc34)[nH]c2-c2ccc3ncnn3c2)n1 [Compound 1.60] | 10 to 100 nM |
| Cc1cccc(-c2nc(CNCc3cccc(Oc4cccnc4)c3)[nH]c2-c2ccc3ncnn3c2)n1 [Compound 57] | 10 to 100 nM |
| Cc1cccc(-c2nc(CNCc3ccccc3)[nH]c2-c2ccc3c(c2)OCO3)n1 [Compound 76] | 10 to 100 nM |
| Cc1cccc(-c2nc(CNCc3ccccc3-c3ccccc3)[nH]c2-c2ccc3nccnc3c2)n1 [Compound 72] | 10 to 100 nM |
| Cc1cccc(-c2nc(CNCc3cccc4ccccc34)[nH]c2-c2ccc3ncnn3c2)n1 [Compound 1.57] | 10 to 100 nM |
| Cc1cccc(-c2nc(CNCc3cccc(Oc4ccncc4)c3)[nH]c2-c2ccc3ncnn3c2)n1 [Compound 58] | 10 to 100 nM |
| Cc1cccc(-c2nc(CNCCc3cccc4ccccc34)[nH]c2-c2ccc3ncnn3c2)n1 [Compound 1.59] | 10 to 100 nM |
| Cc1cccc(-c2nc(CNCCc3c(F)cccc3F)[nH]c2-c2ccc3ncccc3n2)n1 [Compound 78] | 0.1 to 10 nM |
| Cc1cccc(-c2nc(CNCc3ccccc3)[nH]c2-c2ccnc3ccccc23)n1 [Compound 74] | 100 to 1000 nM |
| Cc1cccc(-c2nc(CN3CCc4ccccc4C3)[nH]c2-c2ccn3ncnc3c2)n1 [Compound 1.40] | 100 to 1000 nM |
| Cc1cccc(-c2nc(CNCCc3c(F)cccc3F)[nH]c2-c2ccncc2)n1 [Compound 80] | 100 to 1000 nM |
| Cc1cccc(-c2nc(CNCc3ccccc3Oc3ccncc3)[nH]c2-c2ccc3ncnn3c2)n1 [Compound 55] | 1000 to 10000 nM |
| Cc1cccc(-c2nc(CNCc3ccccc3)[nH]c2-c2ccccn2)n1 [Compound 75] | 100 to 1000 nM |
| Cc1cccc(-c2nc(CNCc3cccc(Oc4ccccc4)c3)[nH]c2-c2ccc3ncnn3c2)n1 [Compound 56] | 10 to 100 nM |
| Cc1cccc(-c2nc(CNCCc3c(F)cccc3F)[nH]c2-c2ccnc3ccccc23)n1 [Compound 79] | 100 to 1000 nM |
| Cc1cccc(-c2nc(CNCc3ccccc3)[nH]c2-c2ccc3ncccc3n2)n1 [Compound 73] | 100 to 1000 nM |

More lines, now with the values ahead:

| IC50 | Compound |
| --- | --- |
| 1000 to 10000 nM | Cc1cccc(-c2nc(C3CNC3)[nH]c2-c2ccc3ncnn3c2)n1 [Compound 1.53] |
| 10 to 100 nM | Cc1cccc(-c2nc(CNC3CCCCCC3)[nH]c2-c2ccc3ncnn3c2)n1 [Compound 1.13] |
| 10 to 100 nM | Cc1cccc(-c2nc(CNCc3ccc(Cl)cc3)[nH]c2-c2ccc3ncnn3c2)n1 [Compound 3] |
| 10 to 100 nM | Cc1cccc(-c2nc(CN[C@H]3c4ccccc4C[C@H]3O)[nH]c2-c2ccc3ncnn3c2)n1 [Compound 1.43] |
| 0.1 to 10 nM | Cc1cccc(-c2nc(CNCc3cccc(C)c3C)[nH]c2-c2ccc3ncnn3c2)n1 [Compound 45] |
| 100 to 1000 nM | Cc1cccc(-c2nc(CNc3ccc4c(c3)CC(N)C4)[nH]c2-c2ccc3ncnn3c2)n1 (centres unmarked) [Compound 1.24] |
| 10 to 100 nM | Cc1cccc(-c2nc(CN3Cc4ccccc4C3=O)[nH]c2-c2ccc3ncnn3c2)n1 [Compound 1.56] |
| 0.1 to 10 nM | Cc1cccc(-c2nc(CNCCc3ccccc3)[nH]c2-c2ccc3ncnn3c2)n1 [Compound 52] |
| 0.1 to 10 nM | Cc1cccc(-c2nc(CNCc3ccccc3C(C)C)[nH]c2-c2ccc3ncnn3c2)n1 [Compound 23] |
| 100 to 1000 nM | Cc1cccc(-c2nc(CNc3cncc(CN)c3)[nH]c2-c2ccc3ncnn3c2)n1 [Compound 1.19] |
| 1000 to 10000 nM | Cc1cccc(-c2nc(CNC3CCNCC3)[nH]c2-c2ccn3ncnc3c2)n1 [Compound 1.39] |
| 10 to 100 nM | Cc1cccc(-c2nc(CN[C@@H]3c4ccccc4C[C@@H]3O)[nH]c2-c2ccc3ncnn3c2)n1 [Compound 1.44] |
| 100 to 1000 nM | Cc1cccc(-c2nc(CNc3cccc4c3CNCC4)[nH]c2-c2ccc3ncnn3c2)n1 [Compound 1.3] |
| 10 to 100 nM | Cc1cccc(-c2nc(CNCC3CCCCC3)[nH]c2-c2ccc3ncnn3c2)n1 [Compound 1.42] |
| 10 to 100 nM | Cc1cccc(-c2nc(CNC3CCOCC3)[nH]c2-c2ccc3ncnn3c2)n1 [Compound 1.14] |
| 100 to 1000 nM | Cc1cccc(-c2nc(CNc3ccc4c(c3)CNCC4)[nH]c2-c2ccc3ncnn3c2)n1 [Compound 1.1] |
| 100 to 1000 nM | Cc1cccc(-c2nc(CNCc3ccc4ccccc4c3)[nH]c2-c2ccc3ncnn3c2)n1 [Compound 1.58] |

| IC50 | Compound |
| --- | --- |
| 10 to 100 nM | Cc1cccc(-c2nc(CN[C@@H]3c4ccccc4C[C@H]3O)[nH]c2-c2ccc3ncnn3c2)n1 [Compound 1.46] |
| 1000 to 10000 nM | Cc1cccc(-c2nc(CNC3CCCNC3)[nH]c2-c2ccn3ncnc3c2)n1 (centres unmarked) [Compound 1.38] |
| 10 to 100 nM | Cc1cccc(-c2nc(CN[C@H]3c4ccccc4C[C@@H]3O)[nH]c2-c2ccc3ncnn3c2)n1 [Compound 1.45] |
| 100 to 1000 nM | Cc1cccc(-c2nc(CNCc3ccc4c(c3)OCO4)[nH]c2-c2ccc3ncnn3c2)n1 [Compound 1.41] |
| 100 to 1000 nM | Cc1cccc(-c2nc(CNc3cccc4c3CCNC4)[nH]c2-c2ccc3ncnn3c2)n1 [Compound 1.4] |
| 100 to 1000 nM | Cc1cccc(-c2nc(C3CCNC3)[nH]c2-c2ccc3ncnn3c2)n1 (centres unmarked) [Compound 1.50] |
| 100 to 1000 nM | Cc1cccc(-c2nc(CN3CCCCC3)[nH]c2-c2ccn3ncnc3c2)n1 [Compound 1.35] |
| 100 to 1000 nM | Cc1cccc(-c2nc(CNC3CC3)[nH]c2-c2ccc3ncnn3c2)n1 [Compound 1.7] |
| 10 to 100 nM | Cc1cccc(-c2nc(CNC3CCCC3)[nH]c2-c2ccc3ncnn3c2)n1 [Compound 1.11] |
| 100 to 1000 nM | Cc1cccc(-c2nc(CNc3ccc4c(c3)CCNC4)[nH]c2-c2ccc3ncnn3c2)n1 [Compound 1.2] |
| 100 to 1000 nM | Cc1cccc(-c2nc(CNCC3CC3)[nH]c2-c2ccc3ncnn3c2)n1 [Compound 1.8] |
| 10 to 100 nM | Cc1cccc(-c2nc(CNC3CCc4ccccc43)[nH]c2-c2ccc3ncnn3c2)n1 (centres unmarked) [Compound 1.26] |
| 10 to 100 nM | Cc1cccc(-c2nc(CNC3CCCCC3)[nH]c2-c2ccc3ncnn3c2)n1 [Compound 1.12] |
| 10 to 100 nM | Cc1cccc(-c2nc(CNC3Cc4ccccc4C3)[nH]c2-c2ccc3ncnn3c2)n1 [Compound 1.27] |
| 100 to 1000 nM | Cc1cccc(-c2nc(CNC3CCC3)[nH]c2-c2ccc3ncnn3c2)n1 [Compound 1.10] |
| 100 to 1000 nM | Cc1cccc(-c2nc(C3CCCCN3)[nH]c2-c2ccc3ncnn3c2)n1 (centres unmarked) [Compound 1.49] |
